Patent US20260224538A1 (Purdue Research Foundation, priority 2023, published 2026)

Columns and labels:
α-synuclein (α-syn) = biological target: T1, α-synuclein (α-syn) (Homo sapiens, UniProt P37840); assay: Thioflavin-T (ThT) fluorescence assay of α-syn fibril formation; assay type: biochemical
T1 construct: purchased rPeptide
Description: (§1) Thioflavin-T (ThT) fluorescence assays. Thioflavin-T (ThT) fluorescence assays were used to monitor fibril formation of recombinant Ap (fragments 1-40 and 1-42), recombinant α-syn, recombinant tau isoform 2N4R, synthetic IAPP, and synthetic TTR peptides treated with BTA and its derivatives. The IAPP ThT assay was performed in 10 mM PBS (pH 7.4) at a final concentration of 10 μM for both IAPP and ThT as published previously. Aβ fragments 1-40 and 1-42 were tested at 7 μM in 10 mM of PBS using ThT at a final concentration of 20 μM. Kinetics of α-syn fibrillization were performed as published previously.^36-37 TTR fragment kinetics of fibril formation were assessed at 10 μM in 100 mM sodium acetate buffer supplemented with 100 mM KCl and 1 mM ethylenediaminetetraacetic acid (EDTA) (pH 4) with 20 μM ThT. The fluorescence emission experiments were performed with the excitation and emission wavelengths set at 440 and 485 nm, respectively, with a Synergy HT multi-mode microplate reader (BioTek, Winooski, VT). Samples were measured in three replicates, and the experiments were repeated three times using at least two different stock solutions. For each time point, arbitrary units of fluorescence were calculated from the mean values normalized against the maximum value in each completed assay. The lag time for each condition was calculated as previously described. All results contained in histograms were presented as mean±SEM. Data were analyzed by the one-way analysis of variance with Dunnett's multiple comparisons between controls and compounds. Differences were considered statistically significant at p<0.05.
Compounds with the highest anti-fibrillary activity were tested at 3.125, 6.25, 12.5, 25, 50, and 100 μM to obtain dose-response curves with prepared α-syn and 2N4R tau at 6.25 μM and 6 μM, respectively. Compounds were tested with α-syn using a previously published procedure. Concerning the tau (isoform 2N4R) kinetics of fibril formation, measurements of ThT fluorescence were performed with a solution of the protein diluted to a final concentration of 6 μM in PBS (pH 7.4) supplemented with 1.5 μM heparin, 20 μM ThT, 2.5 mM DTT, and 100 μM compound. Aliquots of the diluted protein solution (100 μL each) were pipetted into the wells of a 96-well plate, and a Teflon ball was added to each well. The plate was incubated at 37° C. with constant shaking at 1,000 rpm in a Tecan Spark plate reader. ThT fluorescence was measured every 15 minutes with excitation and emission wavelengths of 440 nm and 480 nm, and the data were plotted using GraphPad Prism.

TTR101-125 = biological target: T2, TTR101-125 (Homo sapiens, UniProt P02766); assay: ThT fluorescence assay of TTR101-125 fibril formation; assay type: biochemical; details: screen on prone-to-aggregate proteins (FIG. 4A)
T2 construct: TTR fragments 1-25, 26-50, 51-75, 76-100, 81-105, 101-125, and 101-125 were obtained from GenScript; purchased GenScript; host or cells: synthetic peptide
Description: as §1

α-syn [1] = biological target: T3, α-syn (Homo sapiens, UniProt P37840); assay: Transmission electron microscopy (TEM) of α-syn fibrils; assay type: biochemical; details: compound 100 μM
T3 construct: purchased rPeptide
Description: Transmission electron microscopy (TEM). After performing analysis with ThT fluorescence assay, TEM was utilized to detect fibril formation. A volume of 10 μL was applied to a 400-mesh Formvar-carbon-coated copper grid (Electron Microscopy Sciences, Hatfield, PA). The grids were incubated for 1 minute and washed three times with distilled water. They were carefully air-dried and incubated for 1 minute in a fresh solution of 1% uranyl acetate. Samples were air-dried and observed using a transmission microscope. Visualization of the grids was performed with TEM (JEOL 1400 Flash, Japan). Acquisition of pictures was performed with settings of accelerating voltage of 100 kV and magnification of 25 k and/or 40 k.

[2] = system: M17D neuroblastoma cells that express inclusion-prone αS-3K::YFP; assay: α-Syn inclusion-forming neuroblastoma cell experiment; assay type: cell-based; details: t=96 hrs
Description: α-Syn (or αS) inclusion-forming neuroblastoma cell experiment. Dox-inducible neuroblastoma cells M17D-TR/αS-3K::YFP have been used previously. 96-well plates were used with a cellular density of 30,000 cells per well. Compounds were added […], and αS-3K::YFP transgene expression was induced […]. Induction was done by adding 1 μg per mL (final concentration) dox to culture media. Cells were incubated in the Incucyte Zoom 2000 platform (Essen Biosciences), and images (green, bright field) were taken continuously. Endpoint analysis of inclusion formation or growth was performed 48 hours after induction (96 hours after plating). The Incucyte processing definition ‘Inclusions’ was created as follows: Parameters, Fixed Threshold, Threshold (GCU) 50; Edge Split On, Edge Sensitivity 100; Cleanup, Hole Fill (μm^2): 10, Adjust Size (pixels): 0; Filters, Area (μm^2): max 50, Mean Intensity: min 60, Integrated Intensity: min 2000. Cell confluence was measured by the processing definition ‘Cells’: Parameters, Segmentation Adjustment 0.7; Cleanup, all parameters set to 0; Filters, Area (μm^2): min 345.00. As described previously for the evaluation of protein expression by SDS-PAGE and Western Blotting in the LiCor system, αS-specific monoclonal antibody 4B12 (Thermofisher, Waltham, MA; 1:1000) and a polyclonal antibody to GAPDH (Sigma-Aldrich, St. Louis, MO, G9545; 1:5000) were used.

α-syn [3] = biological target: T3, α-syn; assay: Photo-induced cross-linking of unmodified proteins (PICUP), α-syn oligomerization; assay type: biochemical; details: for α-syn oligomer formation (PICUP): compound 50 μM, molar ratio 1:5 (protein:compound)
Description: Photo-induced Cross-linking of Unmodified Proteins (PICUP) Assay. To induce oligomerization by cross-linking, α-syn (from Rpeptide, LLC) and tau isoform 2N4R were diluted in 10 mM phosphate buffer (pH 7.4) to reach a final concentration of 10 μM. Different compounds were added to the protein solution at a final concentration of 50 μM, resulting in a molar ratio of 1:5. To confirm the gradual effect of the compounds on the inhibition of α-syn oligomerization, the compounds were tested at final concentrations of 3.125, 6.25, 12.5, 25, and 50 μM. The controls consisted of samples without light exposition, without Ru(bpy) or ammonium persulfate, and without compound (i.e., 0.125% DMSO). The cross-linking reaction was initiated by the addition of 2 μL of Ru(bpy) (300 μM final concentration) and 2 μL ammonium persulfate (6 mM final concentration). Samples were irradiated immediately. Light exposure was of a one-second duration for α-syn and a three-second duration for tau isoform 2N4R, with a 53 W (120 V) incandescent lamp installed in a homemade dark-box. Each tube contained a final volume of 20 μL. After irradiation, 8.3 μL of Laemmli loading buffer containing 15% β-mercaptoethanol were immediately added to the solution, followed by incubation at 95° C. for 10 minutes. The cross-linked samples were separated on a 16% SDS-PAGE gel and visualized by Coomassie blue staining.

Nc1nsc2ccc([N+](=O)[O-])cc12 [A, 5-nitro-1,2-benzothiazol-3-amine]
α-syn fibrillization (ThT), dose response (α-synuclein (α-syn); 3.125-100 μM, plateau phase): protein fibrillization was reduced
remaining activity at 100 µM (α-synuclein (α-syn); compounds at 100 μM, α-syn 6.25 μM, control 0.25% DMSO, read-out: ThT a-Syn (%), maximum thioflavin T (ThT) intensity in percentage): 36.2 ± 3.1%
thioflavin T fluorescence intensity, α-syn (α-synuclein (α-syn); screen on prone-to-aggregate proteins (FIG. 2A, FIG. 4A)): significantly more effective at preventing the aggregation
thioflavin T fluorescence intensity, TTR101-125 (TTR101-125): significantly more effective at preventing the aggregation
α-syn fibrils by TEM (α-syn [1]): clear effect in reducing α-syn and tau fibrillization
cell confluence ([2]; different concentrations): without any effect on the cell confluence
number of αS-3K::YFP inclusions ([2]; different concentrations, vs 0.1% DMSO): reduced the number of inclusions in a dose-dependent manner
concentration from which the number of inclusions was reduced [2]: 10 µM
α-syn oligomer formation (PICUP), dose dependence (α-syn [3]; 3.125-50 μM): reduced the oligomer formation in a dose-dependent manner
α-syn oligomer formation (PICUP) (α-syn [3]; listed as 5-nitro-1,2-benzothiazol-3-amine): reduced α-syn and tau isoform 2N4R oligomer formation
α-syn oligomer formation (PICUP) (α-syn [3]; listed as nitro-1,2-benzothiazol-3-amine): reduced the oligomer formation
